Data taken from ChEMBL document CHEMBL1201862, “PubChem BioAssay data set” (2004).
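Each compound was tested at five concentrations against cells in 96-well plates for 48 hours. Here, GI50 denotes the concentration required for 50% inhibition of growth.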 Calls of active or inactive are those of the source. No stated cut-off is given here; in the data, active = GI50 up to about 1.1 µM and inactive = higher.

What was measured:
Experiment in all cases: NCI anticancer screen, dose series, 48 h
786-0 = test system: 786-0
A498 = test system: A498
A549 = test system: A549
ACHN = test system: ACHN
CAKI-1 = test system: CAKI-1
CCRF-CEM = test system: CCRF-CEM
COLO 205 = test system: COLO 205
DLD-1 = test system: DLD-1
DMS-114 = test system: DMS-114
DMS-273 = test system: DMS-273
HCC 2998 = test system: HCC 2998
HCT-116 = test system: HCT-116
HCT-15 = test system: HCT-15
HL-60 = test system: HL-60
HOP-18 = test system: HOP-18
HOP-62 = test system: HOP-62
HOP-92 = test system: HOP-92
HT-29 = test system: HT-29
IGROV-1 = test system: IGROV-1
K562 = test system: K562
KM-20L2 = test system: KM-20L2
KM12 = test system: KM12
LOX IMVI = test system: LOX IMVI
LXFL 529 = test system: LXFL 529
M14 = test system: M14
M19-MEL = test system: M19-MEL
MOLT-4 = test system: MOLT-4
Malme-3M = test system: Malme-3M
NCI-H226 = test system: NCI-H226
NCI-H460 = test system: NCI-H460
NCI-H522 = test system: NCI-H522
OVCAR-4 = test system: OVCAR-4
OVCAR-5 = test system: OVCAR-5
OVCAR-8 = test system: OVCAR-8
RPMI-8226 = test system: RPMI-8226
RXF 393 = test system: RXF 393
RXF 631 = test system: RXF 631
SF-268 = test system: SF-268
SF-295 = test system: SF-295
SF-539 = test system: SF-539
SK-MEL-2 = test system: SK-MEL-2
SK-MEL-5 = test system: SK-MEL-5
SK-OV-3 = test system: SK-OV-3
SN12C = test system: SN12C
SNB-19 = test system: SNB-19
SNB-75 = test system: SNB-75
SNB-78 = test system: SNB-78
SR = test system: SR
SW-620 = test system: SW-620
TK-10 = test system: TK-10
U-251 = test system: U-251
UACC-257 = test system: UACC-257
UACC-62 = test system: UACC-62
UO-31 = test system: UO-31

O=C(O)/C(O)=C1/C=C(c2ccccc2)c2ccccc21
GI50 (786-0): 28.4 µM (inactive) | GI50 (A498): 31.7 µM (inactive) | GI50 (A549): 26.2 µM (inactive) | GI50 (ACHN): 30.1 µM (inactive) | GI50 (CAKI-1): 31.4 µM (inactive) | GI50 (CCRF-CEM): 18.7 µM (inactive) | GI50 (COLO 205): 18 µM (inactive) | GI50 (DLD-1): 30.1 µM (inactive) | GI50 (DMS-114): 18.7 µM (inactive) | GI50 (DMS-273): 18.6 µM (inactive) | GI50 (HCC 2998): 21.5 µM (inactive) | GI50 (HCT-116): 19.6 µM (inactive) | GI50 (HCT-15): 22.2 µM | GI50 (HL-60): 19.9 µM (inactive) | GI50 (HOP-18): 22 µM (inactive) | GI50 (HOP-62): 25.4 µM (inactive) | GI50 (HOP-92): 18.9 µM (inactive) | GI50 (HT-29): 33.1 µM (inactive) | GI50 (IGROV-1): 22.1 µM (inactive) | GI50 (K562): 26.1 µM (inactive) | GI50 (KM-20L2): 33.7 µM (inactive) | GI50 (KM12): 17.8 µM (inactive) | GI50 (LOX IMVI): 17.9 µM (inactive) | GI50 (LXFL 529): 27.5 µM (inactive) | GI50 (M14): 21.1 µM (inactive) | GI50 (M19-MEL): 22.2 µM (inactive) | GI50 (MOLT-4): 14.8 µM (inactive) | GI50 (Malme-3M): 25.5 µM (inactive) | GI50 (NCI-H226): 21.6 µM (inactive) | GI50 (NCI-H460): 26.4 µM (inactive) | GI50 (NCI-H522): 16.9 µM (inactive) | GI50 (OVCAR-4): 26.1 µM (inactive) | GI50 (OVCAR-5): 23.6 µM (inactive) | GI50 (OVCAR-8): 23.9 µM (inactive) | GI50 (RPMI-8226): 19.4 µM (inactive) | GI50 (RXF 393): 19.4 µM (inactive) | GI50 (RXF 631): 28.6 µM (inactive) | GI50 (SF-268): 22 µM (inactive) | GI50 (SF-295): 18.8 µM (inactive) | GI50 (SF-539): 29.9 µM (inactive) | GI50 (SK-MEL-2): 16.7 µM (inactive) | GI50 (SK-MEL-5): 17.7 µM (inactive) | GI50 (SK-OV-3): 30.4 µM (inactive) | GI50 (SN12C): 23.8 µM (inactive) | GI50 (SNB-19): 29.2 µM (inactive) | GI50 (SNB-75): 22 µM (inactive) | GI50 (SNB-78): 31.4 µM (inactive) | GI50 (SR): 18.7 µM (inactive) | GI50 (SW-620): 20 µM (inactive) | GI50 (TK-10): 31.6 µM (inactive) | GI50 (U-251): 18.7 µM (inactive) | GI50 (UACC-257): 20.8 µM (inactive) | GI50 (UACC-62): 16.1 µM (inactive) | GI50 (UO-31): 19.3 µM (inactive)
